Test results from patent US20180116960A1, “TREATING FUNGAL INFECTION OF THE NAIL UNIT” (priority 2009, published 2018).
Where a name gives a salt, the structure may show the parent alone.

Columns and labels:
[1] = stability of terbinafine HCl solutions on standing; type: physicochemical
Description: (§1) With 0.1% Tween-80 in water, the solubility of terbinafine HCl in terbinafine HCl-PEG 3350 blend (75/25, W/W) was 4 mg/mL. […] The final pH was 3.0.
(§2) When DMSO is used as the solvent, the solubility of terbinafine HCl was close to 100 mg/mL. […] The solution was made by weighing 100 mg of terbinafine HCl powder in a glass vial and then adding 1 ml of DMSO solvent. The glass vial was sealed and vortexed for 5 minutes with a mini vortexor. The resulting solution was clear.

[2] = solubility of terbinafine HCl in solvents; type: physicochemical; conditions: thermodynamic from solid
Description: as §1, §2

SMILES: CN(C/C=C/C#CC(C)(C)C)Cc1cccc2ccccc12 [terbinafine HCl]
- appearance of solution on standing ([1]; 0.1% Tween-80 in water, room temperature, 5 days): clear but turned cloudy
- time the solution was stable ([1]; DMSO solution): up to 7 days
- concentration of solution on storage ([1]; DMSO solution, after 14 days up to 22 days): remained constant
- concentration of solution on storage ([1]; DMSO solution, at 14 days): 90000 µg/mL
- solubility at 5 min ([2]; DMSO, organic solvent or mixture): ~100000 µg/mL
- solubility ([2]; aqueous buffer, phosphate-buffered saline (PBS 1×, starting pH 7.4), final pH 4.2): 780 µg/mL
- solubility ([2]; aqueous with cosolvent or surfactant or cyclodextrin, 0.1% Tween-80 in water, terbinafine HCl in terbinafine HCl-PEG 3350 blend (75/25, W/W), final pH 3.0): 4000 µg/mL
